A short description of series [1]: T2-NMR spin-spin relaxation rate of PA assemblies. The format is physicochemical. As to conditions: for relaxation rate 1H-R2 of methylene protons on ε carbon of K residue in IKVAV: T2-NMR, IKVAV PA library. On the procedure:
NMR spectra were acquired at 600 MHz on a Tecmag NMR spectrometer using a Doty diffusion probe with a sweep width of 6 kHz and 16k data points or at 600 MHz on a Brucker Neo system with QCI-F cryoprobe.
NMR spectra for IKVAV PAs were recorded at 25° C. using TFA-d, H2O/D2O in 9/1 ratio (D2O contains 0.05 wt. % 3-(trimethylsilyl) propionic-2,2,3,3-d4 acid, sodium salt) as solvents. Chemical shifts are reported in part per million (ppm). Structural assignment was performed using ^1H,^1H-gCOSY, ^1H,^13C-gHSCQAD, TOCSY and NOESY. Multiplicities are quoted as singlet (s), doublet (d), multiplets (m), doublet of doublets (dd), doublet of doublet of doublets (ddd), triplet (t), quartet (q). The […] and typical spectra required 32 scans. Additional scans (512) were required for accurate estimation of the aromatic signal intensity since the epitope containing aromatic protons was present at only 10 mol %.
The spin-spin relaxation rates were measured using the Carr-Purcell-Gill-Meiboom pulse sequence with a delay time of 0.2 ms in a variable loop. The peak intensity data was fit to and exponential in the form:
where τ is the length of the delay time, R2 is the spin-spin relaxation rate and b are the baseline.

In the next series the test system is hNPCs. Kind of series: Neuronal differentiation of hNPCs treated with IKVAV PAs (TUJ-1+ cells). Type of series: cell-based, human. From the text:
Neural progenitor cells (NPCs) were differentiated from human embryonic stem cells HUES 64 (Harvard University) (see FIG. 2C). In short, 70% confluent stem cell cultures grown in Matrigel (Thermo Fisher) coated plates with mTESR medium (STEMCELL Technologies), were switched to N2B27 medium (50% DMEM: F12, 50% Neurobasal, supplemented with NEAA, Glutamax, N2 and B27; Gibco) containing dual SMAD inhibitors (SB431542, DNSK International and LDN-193189, Tocris) for 12 days to induce the generation of neural progenitors. Neuralization was enhanced by supplementing medium with laminin from day 5 to 12. Next, neural rosettes were dissociated with neural rosette selection reagent (STEMCELL Technologies) to obtain NPCs, which are expanded in N2B27 (Gibco) medium supplemented with bFGF (Millipore). For experimentation in the different PA platforms, NPCs were dissociated with Accutase (Innovative Cell technology), and cultured in the distinct platforms with DMEM: F12+N2+B27 medium with hyclone penicillin-streptomycin (GE Healthcare) and ascorbic acid (0.2 μg/mL; Sigma-Aldrich).
For IKVAV PA treatments, hNPCs were cultured on ornithine coatings (German Glass, Chemglass Life Science) in 6 well and 24 well plates at a density of 500,000 cells/well and 80,000 cells/well respectively. hNPCs were treated with […] of IKVAV PAs ([PA]=6 mM, [KCl]=3 mM, [NaCl]=150 mM) or recombinant laminin protein (10 mg/mL) in solution. IKVAV PA2 and IKVAV PA5 were also mixed with 5 mM CaCl2) at a ratio PA:CaCl2) 6:1 to treat hNPCs. For 2D experiments, hNPCs were cultured on the different IKVAV PAs or laminin coatings in 6 well and 24 well plates at densities mentioned above. For co-assembled experiments, hNPCs were cultured on the different co-assembled PA coatings in 6 well and 24 well plates at a density of 400,000 cells/well and 50,000 cells/well respectively.
hNPCs were fed 4 times a week with DMEM: F12+N2^+B27 medium with hyclone penicillin-streptomycin and ascorbic acid. After 24 h, 72 h 1- or 2-weeks in vitro, cell lysates were harvested or fixed for WB or ICC, respectively. Three replicates per condition and at least three independent experiments were carried out for all conditions investigated.
For immunofluorescence, fixed primary cultures or free-floating tissue sections (40 m Thick) were incubated in blocking buffer containing 0.02% Triton-X (Sigma-Aldrich), 1% NHS (Gibco) and PBS 1× (Gibco). Samples were incubated with primary antibodies over night at 4° C. Alexa-488, Alexa-555 and/or Alexa-647 (1:500, Thermofisher) were used as secondary antibodies. DAPI (1:500, Thermofisher) was used to stain nuclei. Finally, the samples were mounted on coverslips with Immu-Mount (Fisher Scientific) solution for imaging.
For in vitro cell quantification, image files were imported into NIH Image J (1.51) software and the “analyze particles” and “cell counter” functions were used to measure the total number of cells in a determined area. Serial tissue sections were stained with NeuN and ChAT using free-floating immunostaining were quantified using Nikon Elements software. The rostral and caudal borders of the lesions were chosen as the first cross-sections that had NeuN staining in all four gray matter horns. 8 sections within the lesion were chosen per animal and expressed as number of neurons per section. Automated multichannel image acquisition, image stitching, and z-stack reconstruction ([…]) were carried out on a Nikon GasP R1 confocal microscope to image the entire selected cross-section for NeuN and Chat markers for all conditions.

Series [2] in a line: Fluorescence depolarization (FD) with DPH encapsulated in PA nanofibers. Type of series: physicochemical. As to conditions: for fluorescence anisotropy: DPH probe in hydrophobic core of IKVAV PA nanofibers; for supramolecular motion on addition of Ca2+: 5 mM CaCl2, confirmed by FD and T2-NMR. On the procedure:
An aqueous solution of 100 μL of annealed PA ([PA]=6 mM, [KCl]=3 mM, [NaCl]=150 mM) was added a THF solution (2 μL) of 1,6-diphenyl-1,3,5-hexatriene (DPH; 1.4 mM), and the mixture was incubated for 30 min at 25° C. Then, the mixture was diluted with aqueous KCl and NaCl (1900 μL, [KCl]=3 mM, [NaCl]=150 mM), incubated for 10-30 min at 25° C. to afford a solution of DPH (1.4 μM)-embedded PA (300 μM). To obtain IKVAV PA2 (A2G2) or IKVAV PA5 (G4) in the presence of CaCl2), 5 mM CaCl2) was then added to the DPH-embedded PA aqueous solution to afford PA: CaCl2) at a molar ratio of 6:1. DPH was exited at 336 nm and emission was recorded at 450 nm on an ISS model PC1 spectrofluorometer with a 300 W xenon arc lamp with power of 18 A. Excitation slit and emission slit widths were set as 1 mm (8 nm bandwidth). Anisotropy was calculated using the following equation: […]
Where F∥ represents the parallel intensity to the excitation plane, F⊥ is the perpendicular intensity to the excitation plane, g is grating factor (G-factor) that represents the intensity ratio of the sensitivity of the detection system for vertically and horizontally polarized light. G-factors were determined individually in each measurement. Results were averaged based on 34 iterations from two measurements.
For orientation: Fluorescence polarisation rises when a labelled molecule tumbles more slowly, as on binding a larger partner.

Setting [3] is: T2 relaxation of K residue of IKVAV PAs, no Ca2+.

This note sets out measurements from US20240325548A1, “DYNAMIC BIOACTIVE SCAFFOLDS AND THERAPEUTIC USES THEREOF AFTER CNS INJURY” (Northwestern University, priority 2021, published 2024).

Regarding C16-VAG2E4GIKVAV [IKVAV PA4], the R2 in series [1] (setting [3]) stood at 5.6 ± 0.4 s⁻¹. Also, the “percentage of induction of TUJ-1+ neuronal cells” value (shortened to “percentage”) in the series on hNPCs is reported as 14±1.2%. The substance also had a fluorescence anisotropy in series [2] of 0.30.
For C16-V2A2E4GIKVAV [IKVAV PA1], the R2 in series [1] (setting [3]) is 11.2 ± 2.9 s⁻¹. In addition, the “percentage” value in the series with hNPCs is recorded as 8.2±0.7%.
C16-A2G2E4GIKVAV [IKVAV PA2]: the “relaxation rate 1H-R2 of methylene protons on ε carbon of K residue in IKVAV” value in series [1] amounted to 2.7 ± 0.1 s⁻¹. The R2 in series [1] (setting [3]) is 2.7 ± 0.1 s⁻¹; in series [1] (T2 relaxation of K residue, +Ca2+), 8.6 ± 0.5 s⁻¹. In addition, the “percentage” value with hNPCs is on record as 20.5±1%. Also, the “supramolecular motion on addition of Ca2+” value in series [2] is recorded as “suppressed”. For the same substance, the fluorescence anisotropy in series [2] was 0.21.
C16-G4E4GIKVAV [IKVAV PA5]: the “relaxation rate 1H-R2 of methylene protons on ε carbon of K residue in IKVAV” value in series [1] is 2.6 ± 0.003 s⁻¹. In addition, the R2 in series [1] (setting [3]) turned out to be 2.6 ± 0.03 s⁻¹. For the same substance, the “percentage” value in the series on hNPCs is 20.7±1.2%. In series [2], the “supramolecular motion on addition of Ca2+” value is “suppressed” and the fluorescence anisotropy is reported as 0.18.
